Source: US20240425479A1, “HALO-SUBSTITUTED AMINO AZA-HETEROARYL COMPOUNDS AS INHIBITORS OF THE HAEMATOPOIETIC PROGENITOR KINASE 1 (HPK1)” (priority 2021, published 2024)

Key:
[1] = biological target: T1, Recombinant (1-346) HPK1 (h) (Homo sapiens, UniProt Q92918); experiment: HPK1 human STE kinase enzymatic radiometric assay; format: biochemical; details: read-out: HPK1 IC50 nM Range
T1 construct: Recombinant (1-346) HPK1 (h) is incubated with 8 mM MOPS pH 7.0
T1 sequence (Q92918 1-346): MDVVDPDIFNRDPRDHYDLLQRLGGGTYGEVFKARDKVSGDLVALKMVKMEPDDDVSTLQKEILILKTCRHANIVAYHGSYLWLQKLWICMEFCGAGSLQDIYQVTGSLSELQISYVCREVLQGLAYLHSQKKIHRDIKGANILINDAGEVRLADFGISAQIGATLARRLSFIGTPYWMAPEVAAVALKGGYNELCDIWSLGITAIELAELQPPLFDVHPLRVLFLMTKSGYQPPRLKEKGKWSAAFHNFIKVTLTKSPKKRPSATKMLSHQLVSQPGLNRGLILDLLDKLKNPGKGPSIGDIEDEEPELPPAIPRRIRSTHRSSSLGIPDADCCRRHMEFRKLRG
Procedure, shortened: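 Compounds in 3-fold, 9-point serial dilution; kinase (residues 1-346) phosphorylates myelin basic protein (0.33 mg/mL) using [gamma-33P]-ATP at pH 7.0 (MOPS, EDTA, Mg acetate) for 40 min, room temperature. Acid-quenched mixture filtered onto P30 mats; incorporated radioactivity read by scintillation counting.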

Lck (h) = Lck (h) (Homo sapiens, UniProt P06239); experiment: Lck human STE kinase enzymatic radiometric assay; format: biochemical; details: read-out: Lck IC50 nM Range
Procedure: (b) Lck Human STE Kinase Enzymatic Radiometric Assay
Lck (h) is incubated with 50 mM Tris pH 7.5, 0.1 mM EGTA, 0.1 mM Na3VO4, 250 uM KVEKIGEGTYGVVYK (Cdc2 peptide), 10 mM MgAcetate and [gamma-33P]-ATP (specific activity and concentration as required). The reaction is initiated by the addition of the Mg/ATP mix. After incubation for 40 minutes at room temperature, the reaction is stopped by the addition of phosphoric acid to a concentration of 0.5%, 10 μL of the reaction is then spotted onto a P30 filtermat and washed four times for 4 minutes in 0.425% phosphoric acid and once in methanol prior to drying and scintillation counting. For more details on the kinase assay procedures see: Gao, Y. et. al.; Biochem J., 451 (2): 313-328, 2013.

Sequence of Lck (h) (P06239 whole entry): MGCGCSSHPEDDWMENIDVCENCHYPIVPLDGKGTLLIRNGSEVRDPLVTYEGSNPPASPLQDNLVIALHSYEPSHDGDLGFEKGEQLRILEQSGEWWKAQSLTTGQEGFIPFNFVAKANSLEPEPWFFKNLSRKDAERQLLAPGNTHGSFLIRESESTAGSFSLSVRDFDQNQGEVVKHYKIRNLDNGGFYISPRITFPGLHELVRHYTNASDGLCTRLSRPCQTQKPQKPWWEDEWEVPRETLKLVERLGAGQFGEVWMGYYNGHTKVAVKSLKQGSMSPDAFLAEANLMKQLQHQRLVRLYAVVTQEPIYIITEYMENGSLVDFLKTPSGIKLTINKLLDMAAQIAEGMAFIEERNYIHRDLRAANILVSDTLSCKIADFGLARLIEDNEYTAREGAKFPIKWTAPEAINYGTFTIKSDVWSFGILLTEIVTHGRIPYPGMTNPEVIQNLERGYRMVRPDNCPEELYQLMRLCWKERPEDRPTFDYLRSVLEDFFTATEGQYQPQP

`Cc1nc2cc(-c3nc(-c4ccc(C5CCOCC5)c(CN(C)C)c4)c(F)nc3N)ccc2c(=O)[nH]1` [Example I-92, 7-(3-amino-6-(3-((dimethylamino)methyl)-4-(tetrahydro-2H-pyran-4-yl)phenyl)-5-fluoropyrazin-2-yl)-2-methylquinazolin-4(3H)-one] showed an IC50 [1] of 0.1 to 10 nM and an IC50 (Lck (h)) of over 1000 nM.
In the case of `Cc1c[nH]c(=O)c2ccc(-c3nc(-c4ccc(N5CCOCC5)c(CN(C)C)c4)c(F)nc3N)cc12` [Example I-96, 6-(3-amino-6-(3-((dimethylamino)methyl)-4-morpholinophenyl)-5-fluoropyrazin-2-yl)-4-methylisoquinolin-1(2H)-one], the IC50 [1] is reported as 0.1 to 10 nM and the IC50 (Lck (h)) is reported as over 1000 nM.
`CC(C)N1CCN(c2ccc(-c3nc(-c4ccc5c(=O)[nH]cc(F)c5c4)c(N)nc3F)cc2)CC1` [Example I-66, 6-(3-amino-5-fluoro-6-(4-(4-isopropylpiperazin-1-yl)phenyl)pyrazin-2-yl)-4-fluoroisoquinolin-1(2H)-one] was tested, and the IC50 [1] was 0.1 to 10 nM and the IC50 (Lck (h)) was over 1000 nM.
For `CC(C)N1C[C@@H]2C[C@]2(c2ccc(-c3nc(-c4cc5c(cc4F)C(=O)NCC5)c(N)nc3F)cc2)C1` [Example I-6, 6-(3-amino-5-fluoro-6-(4-((1S,5R)-3-isopropyl-3-azabicyclo[3.1.0]hexan-1-yl)phenyl)pyrazin-2-yl)-7-fluoro-3,4-dihydroisoquinolin-1(2H)-one], the IC50 [1] was 0.1 to 10 nM and the IC50 (Lck (h)) was 101 to 1000 nM.
`Nc1nc(F)c(-c2ccc(C3CCOCC3)c(CN3CCCC3)c2)nc1-c1cc2c(cc1F)C(=O)NCC2` [Example I-148, 6-(3-amino-5-fluoro-6-(3-(pyrrolidin-1-ylmethyl)-4-(tetrahydro-2H-pyran-4-yl)phenyl)pyrazin-2-yl)-7-fluoro-3,4-dihydroisoquinolin-1(2H)-one] gave an IC50 [1] of 0.1 to 10 nM and an IC50 (Lck (h)) of over 1000 nM.
For `CC(C)S(=O)(=O)c1ccc(-c2nc(-c3ccc4c(=O)[nH]cc(F)c4c3)c(N)nc2F)cc1CN(C)C` [Example I-293, 6-(3-amino-6-(3-((dimethylamino)methyl)-4-(isopropylsulfonyl)phenyl)-5-fluoropyrazin-2-yl)-4-fluoroisoquinolin-1(2H)-one], the IC50 [1] was 11 to 100 nM and the IC50 (Lck (h)) was over 1000 nM.
With `C[C@@H]1CN(c2ccc(-c3nc(-c4ccc5c(c4)C(F)(F)CNC5=O)c(N)nc3F)cc2CN(C)C)C[C@H](C)O1` [Example I-257, 6-(3-amino-6-(3-((dimethylamino)methyl)-4-((2R,6S)-2,6-dimethylmorpholino)phenyl)-5-fluoropyrazin-2-yl)-4,4-difluoro-3,4-dihydroisoquinolin-1(2H)-one] the IC50 [1] was 0.1 to 10 nM and the IC50 (Lck (h)) was over 1000 nM.
For `Cc1c[nH]c(=O)c2ccc(-c3nc(-c4ccc(N5CCN(CC6CC6)CC5)cc4)c(F)nc3N)cc12` [Example I-72, 6-(3-amino-6-(4-(4-(cyclopropylmethyl)piperazin-1-yl)phenyl)-5-fluoropyrazin-2-yl)-4-methylisoquinolin-1(2H)-one], the IC50 [1] was 0.1 to 10 nM and the IC50 (Lck (h)) was over 1000 nM.
`Cc1nc2cc(-c3nc(-c4ccc(N5CCN(C(C)C)CC5)cc4)c(F)nc3N)ccc2c(=O)[nH]1` [Example I-39, 7-(3-amino-5-fluoro-6-(4-(4-isopropylpiperazin-1-yl)phenyl)pyrazin-2-yl)-2-methylquinazolin-4(3H)-one] showed an IC50 [1] of 11 to 100 nM and an IC50 (Lck (h)) of over 1000 nM.
With `CN(C)Cc1cc(-c2nc(-c3ccc4c(=O)[nH]cc(Cl)c4c3)c(N)nc2F)ccc1C1CCOCC1` [Example I-154, 6-(3-amino-6-(3-((dimethylamino)methyl)-4-(tetrahydro-2H-pyran-4-yl)phenyl)-5-fluoropyrazin-2-yl)-4-chloroisoquinolin-1(2H)-one] the IC50 [1] was 0.1 to 10 nM and the IC50 (Lck (h)) was over 1000 nM.
`CC(C)N1C[C@H]2C[C@@]2(c2ccc(-c3nc(-c4cc5c(cc4F)C(=O)NCC5)c(N)nc3F)cc2)C1` [Example I-4, 6-(3-amino-5-fluoro-6-(4-((1R,5S)-3-isopropyl-3-azabicyclo[3.1.0]hexan-1-yl)phenyl)pyrazin-2-yl)-7-fluoro-3,4-dihydroisoquinolin-1(2H)-one] was tested, and the IC50 [1] was 0.1 to 10 nM and the IC50 (Lck (h)) was over 1000 nM.
In the case of `CC(C)N1CCN(c2ccc(-c3nc(-c4ccc5c(c4)CCNC5=O)c(N)nc3Cl)cc2)CC1` [Example I-7, 6-(3-amino-5-chloro-6-(4-(4-isopropylpiperazin-1-yl)phenyl)pyrazin-2-yl)-3,4-dihydroisoquinolin-1(2H)-one], the IC50 [1] is reported as 11 to 100 nM and the IC50 (Lck (h)) is reported as over 1000 nM.
`CC(C1CC1)N1CCN(c2ccc(-c3nc(-c4cc(F)c5c(c4)CCNC5=O)c(N)nc3F)cc2)CC1` (single isomer, unassigned) [Example I-29, 6-(3-amino-6-(4-(4-(1-cyclopropylethyl)piperazin-1-yl)phenyl)-5-fluoropyrazin-2-yl)-8-fluoro-3,4-dihydroisoquinolin-1(2H)-one] showed an IC50 [1] of 0.1 to 10 nM and an IC50 (Lck (h)) of 101 to 1000 nM.
With `CC(C)N1CCN(c2ccc(-c3nc(-c4ccc5c(c4)C4(CC4)CNC5=O)c(N)nc3F)cc2)CC1` [Example I-103, 6′-(3-amino-5-fluoro-6-(4-(4-isopropylpiperazin-1-yl)phenyl)pyrazin-2-yl)-2′,3′-dihydro-1′H-spiro[cyclopropane-1,4′-isoquinolin]-1′-one] the IC50 [1] was 0.1 to 10 nM and the IC50 (Lck (h)) was 101 to 1000 nM.
With `Nc1nc(F)c(-c2ccc(C3CCOCC3)c(CN3CCC3)c2)nc1-c1cc2c(cc1F)C(=O)NCC2` [Example I-170, 6-(3-amino-6-(3-(azetidin-1-ylmethyl)-4-(tetrahydro-2H-pyran-4-yl)phenyl)-5-fluoropyrazin-2-yl)-7-fluoro-3,4-dihydroisoquinolin-1(2H)-one] the IC50 [1] was 0.1 to 10 nM and the IC50 (Lck (h)) was over 1000 nM.
With `Nc1nc(F)c(-c2ccc(N3CCN(C4CCC4)CC3)cc2)nc1-c1cc2c(cc1F)C(=O)NCC2` [Example I-48, 6-(3-amino-6-(4-(4-cyclobutylpiperazin-1-yl)phenyl)-5-fluoropyrazin-2-yl)-7-fluoro-3,4-dihydroisoquinolin-1(2H)-one] the IC50 [1] was 0.1 to 10 nM and the IC50 (Lck (h)) was over 1000 nM.
`CC(C)N1CCN(c2ccc(-c3nc(-c4ccc5c(=O)[nH]ncc5c4)c(N)nc3F)cc2)CC1` [Example I-38, 6-(3-amino-5-fluoro-6-(4-(4-isopropylpiperazin-1-yl)phenyl)pyrazin-2-yl)phthalazin-1(2H)-one] was tested, and the IC50 [1] was 11 to 100 nM and the IC50 (Lck (h)) was over 1000 nM.
Work on `CN(C)Cc1cc(-c2nc(-c3ccc4c(c3)C3(CC3)CNC4=O)c(N)nc2F)ccc1C1CCOCC1` [Example I-110, 6′-(3-amino-6-(3-((dimethylamino)methyl)-4-(tetrahydro-2H-pyran-4-yl)phenyl)-5-fluoropyrazin-2-yl)-2′,3′-dihydro-1′H-spiro[cyclopropane-1,4′-isoquinolin]-1′-one] yielded an IC50 [1] of 0.1 to 10 nM and an IC50 (Lck (h)) of 101 to 1000 nM.
`CN(C)Cc1cc(-c2nc(-c3cc(F)c4c(c3)CCNC4=O)c(N)nc2F)ccc1C1CCOCC1` [Example I-83, 6-(3-amino-6-(3-((dimethylamino)methyl)-4-(tetrahydro-2H-pyran-4-yl)phenyl)-5-fluoropyrazin-2-yl)-8-fluoro-3,4-dihydroisoquinolin-1(2H)-one] gave an IC50 [1] of 0.1 to 10 nM and an IC50 (Lck (h)) of over 1000 nM.
With `Cc1c[nH]c(=O)c2ccc(-c3nc(-c4ccc(C5CCOCC5)c(CN(C)C)c4)c(F)nc3N)cc12` [Example I-98, 6-(3-amino-6-(3-((dimethylamino)methyl)-4-(tetrahydro-2H-pyran-4-yl)phenyl)-5-fluoropyrazin-2-yl)-4-methylisoquinolin-1(2H)-one] the IC50 [1] was 0.1 to 10 nM and the IC50 (Lck (h)) was over 1000 nM.
